Data: patent US9788541B2, “Antibacterial surfactant/microgel formulations, methods of making and methods of using the same” (The University of Toledo, priority 2012, dated 2017)

System: Pseudomonas aeruginosa PAO1
Experiment: Antibacterial activity test, viable cell counts by heterotrophic plate count
Assay type: cell-based
Details: microgel-free surfactant solutions (10 mmol/kg SDS, 14.4 mmol/kg TX-100, 3.0 mmol/kg 40:60 SDS:TX100), 0-30 min; FIG. 5 Groups 6-8
Method: The effect of anionic and nonionic surfactants on the microgel antibacterial properties was probed using Pseudomonas aeruginosa (wild-type P. aeruginosa PAOI strain) as model Gram-negative bacteria. The bacteria were cultured in one-tenth strength LB broth (2.5 g/L, Difco Laboratory, Detroit, Mich.) at 37° C. until the late-exponential phase. Bacterial cells were then harvested by centrifugation at 2,000 g for 15 min (using an Eppendorf 5804R centrifuge; Hamburg, Germany), washed and resuspended in phosphate buffer (0.54 g Na2HPQ4 and 0.88 g KH2PO4 per liter, pH=6.98) as bacterial suspensions (0D600=0.25±0.02).
Each antimicrobial formulation sample was then tested in triplicate at room temperature (22±2° C.). The bacterial suspension was mixed with the surfactant/microgel formulations in a 1:1000 ratio (e.g., 15 μl:15 ml). After mixing, samples were taken at 5, 15, and 30 min to quantify the effect of surfactant/microgel formulations on the number of viable cells. The viable cells were enumerated at each time point using the heterotrophic plate count method with R2A agar plates (Difco Laboratories, Detroit, Mich.).
The antibacterial activity of the surfactant/microgel formulations was tested using Pseudomonas aeruginosa PAO1 as a model Gram-negative bacteria. […]

Compound: CCCCCCCCCCCCOS(=O)(=O)[O-].[Na+] [SDS, sodium dodecyl sulfate]
- effect on bacterial viability: no short-term effect on bacterial viability

Compound: t-octylphenoxypolyethoxyethanol [TX100]
- effect on bacterial viability: no short-term effect on bacterial viability
